Assay results published in US9676788B2, “Aza-epoxy-guaiane derivatives and treatment of cancer” (The United States of America, as represented by the …, priority 2014, dated 2017).
Where “and” joins values, the source holds several entries; their conditions need not be identical. Equal entries are not always repeated. Where two headings read alike, the source gives them in different places.

What was measured:
HS 578T (breast cancer) = assay: NCI 60-cell line protocol, Breast Cancer HS 578T; format: cell-based, human; conditions: SRB endpoint; for GI50: Homo sapiens, Hs-578T, 48 h, five 10-fold dilutions, two days exposure; for HS 578T one dose (%): one-dose protocol, single final concentration of 10 micromolar, two days
A498 (renal cancer) = assay: NCI 60-cell line protocol, Renal Cancer A498; format: cell-based, human; conditions: SRB endpoint; for GI50: Homo sapiens, A498, 48 h, five 10-fold dilutions, two days exposure; for A498 one dose (%): one-dose protocol, single final concentration of 10 micromolar, two days
ACHN (renal cancer) = assay: NCI 60-cell line protocol, Renal Cancer ACHN; format: cell-based, human; conditions: SRB endpoint; for GI50: Homo sapiens, ACHN, 48 h, five 10-fold dilutions, two days exposure; for ACHN one dose (%): one-dose protocol, single final concentration of 10 micromolar, two days
SA = assay: NCI 60-cell line protocol, Leukemia SA; format: cell-based, human; conditions: single dose 10 μM, two days exposure, SRB endpoint
SK-MEL-2 = assay: NCI 60-cell line protocol, Melanoma SK-MEL-2; conditions: SK-MEL-2 (Melanoma); single dose 10 μM; two days exposure; SRB endpoint
Procedure: (§1) Samples were tested in the standard National Cancer Institute 60-cell line protocol. First, they were tested against all 60 cell lines in a single final concentration of 10 micromolar. Then, they were separately tested in five 10-fold dilutions. The drug exposure was for two days, with an SRB endpoint.
(§2) Samples were tested in the standard National Cancer Institute 60-cell line protocol. The dosing protocol was a single dose of the compound at 10 μM concentration.

UACC-257 = assay: NCI 60-cell line protocol, Melanoma UACC-257; conditions: UACC-257 (Melanoma); single dose 10 μM; two days exposure; SRB endpoint
Procedure: as §1, §2

RPMI-8226 = assay: NCI 60-cell line protocol, Leukemia RPMI-8226; conditions: RPMI-8226 (Leukemia); single dose 10 μM; two days exposure; SRB endpoint
Procedure: as §1, §2

SK-MEL-28 = assay: NCI 60-cell line protocol, Melanoma SK-MEL-28; conditions: SK-MEL-28 (Melanoma); single dose 10 μM; two days exposure; SRB endpoint
Procedure: as §1, §2

SK-MEL-5 = assay: NCI 60-cell line protocol, Melanoma SK-MEL-5; conditions: SK-MEL-5 (Melanoma); single dose 10 μM; two days exposure; SRB endpoint
Procedure: as §1, §2

LOX IMVI = assay: NCI 60-cell line protocol, Melanoma LOX IMVI; conditions: single dose 10 μM, two days exposure, SRB endpoint
Procedure: as §1, §2

CCRF-CEM = assay: NCI 60-cell line protocol, Leukemia CCRF-CEM; conditions: single dose 10 μM, two days exposure, SRB endpoint
Procedure: as §1, §2

K-562 = assay: NCI 60-cell line protocol, Leukemia K-562; conditions: K-562 (Leukemia); single dose 10 μM; two days exposure; SRB endpoint
Procedure: as §1, §2

MDA-MB-435 = assay: NCI 60-cell line protocol, Melanoma MDA-MB-435; conditions: MDA-MB-435 (Melanoma); single dose 10 μM; two days exposure; SRB endpoint
Procedure: as §1, §2

MALME-3M = assay: NCI 60-cell line protocol, Melanoma MALME-3M; conditions: MALME-3M (Melanoma); single dose 10 μM; two days exposure; SRB endpoint
Procedure: as §1, §2

UACC-62 = assay: NCI 60-cell line protocol, Melanoma UACC-62; conditions: UACC-62 (Melanoma); single dose 10 μM; two days exposure; SRB endpoint
Procedure: as §1, §2

M14 = assay: NCI 60-cell line protocol, Melanoma M14; conditions: single dose 10 μM, two days exposure, SRB endpoint
Procedure: as §1, §2

[1] = Plasma concentration in mice 30 minutes after oral gavage, by dose (LC-MS); format: in vivo
Procedure: Mice were dosed at 5 mg/kg, 10 mg/kg, 50 mg/kg, and 100 mg/kg compound 9 in Labrasol vehicle via oral gavage. 30 minutes after dosing, plasma was assayed for the concentration of compound 9 using LC-MS. The results are depicted graphically in FIG. 5.

[2] = Plasma concentration in mice over time after oral gavage (LC-MS/MS); format: in vivo
Procedure: Ten mice were administered 50 mg/kg of compound 9 in Labrasol vehicle via oral gavage. Two mice at a time were sacrificed at the following time points: 5 min, 15 min, 1 h, 4 h, and 8 h. Plasma concentrations of compound 9 were measured by LC-MS/MS, and the results set forth in Table 4 and depicted graphically in FIG. 7.
It was subsequently discovered that an error was made in weighing out compound 9 for formulation of a 5 mg/mL solution in Labrasol. The underweight formulation was confirmed to be about 40% of the expected concentration.

HL-60(fB) = assay: NCI 60-cell line protocol, Leukemia HL-60(fB); format: cell-based, human; conditions: HL-60(fB) (Leukemia); single dose 10 μM; two days exposure; SRB endpoint
MOLT-4 = assay: NCI 60-cell line protocol, Leukemia MOLT-4; format: cell-based, human; conditions: MOLT-4 (Leukemia); single dose 10 μM; two days exposure; SRB endpoint

Row | Compound | GI50 (HS 578T (breast cancer)) [nM] | HS 578T one dose (%) (HS 578T (breast cancer)) | GI50 (A498 (renal cancer)) [nM] | A498 one dose (%) (A498 (renal cancer)) | GI50 (ACHN (renal cancer)) [nM] | ACHN one dose (%) (ACHN (renal cancer)) | Growth Percent (SA) [%] | Growth Percent (SK-MEL-2) [%] | Growth Percent (UACC-257) [%] | Growth Percent (RPMI-8226) [%] | Growth Percent (SK-MEL-28) [%] | Growth Percent (SK-MEL-5) [%] | Growth Percent (LOX IMVI) [%] | Growth Percent (CCRF-CEM) [%] | Growth Percent (K-562) [%] | Growth Percent (MDA-MB-435) [%] | Growth Percent (MALME-3M) [%] | Growth Percent (UACC-62) [%] | Growth Percent (M14) [%] | also measured
1 | CC(C)[C@@]12C[C@@H](NC(=O)CO)[C@@](C)(O1)[C@@H]1CC[C@@H](C)[C@H]1[C@@H]2OC(=O)/C=C/C1CCCCC1 [Compound 11] | 6200 | 73.09 | 5600 | 41.34 | 17000 | 99.90 |  |  |  |  |  |  |  |  |  |  |  |  |  | 
2 | C/C(=C\C(=O)OC1C2C(C)CCC2C2(C)OC1(C(C)C)CC2NC(=O)CO)c1ccccc1 (centres unmarked) [Compound 10] | 2200 | −8.92 | 1100 | −24.59 | 3300 | 27.88 | 117.13 | 104.13 | 92.39 | 125.43 | 117.95 | 101.11 | 100.2 | 94.07 | 92.32 | 105.86 | 95.9 | 101.83 | 100.16 | 
3 | CC1CCC2C1C(OC(=O)/C=C/c1ccccc1)C1(C(C)C)CC(NC(=O)CO)C2(C)O1 (centres unmarked) [Compound 9] | 830 | 9.45 | 160 | −15.20 | 4000 | 8.01 |  |  |  |  |  |  |  |  |  |  |  |  |  | concentration at 30 min ([1]; mouse, plasma, 100 mg/kg oral gavage in Labrasol, 30 minutes after dosing): ~700 ng/mL; oral bioavailability ([1]; oral gavage 5-100 mg/kg in Labrasol): orally bioavailable; [Aza-Englerin] (ng/mL), single animal ([2]; mice plasma, 50 mg/kg oral gavage in Labrasol, time 0.0833 hr, 50 mg/kg): 13.20 ng/mL; [Aza-Englerin] (ng/mL), single animal ([2]; mice plasma, 50 mg/kg oral gavage in Labrasol, time 0.2500 hr, 50 mg/kg): 22.76 ng/mL and 58.70 ng/mL; [Aza-Englerin] (ng/mL), single animal ([2]; mice plasma, 50 mg/kg oral gavage in Labrasol, time 1.0000 hr, 50 mg/kg): 59.24 ng/mL; [Aza-Englerin] (ng/mL), single animal ([2]; mice plasma, 50 mg/kg oral gavage in Labrasol, time 4.0000 hr, 50 mg/kg): 31.12 ng/mL and 86.81 ng/mL; [Aza-Englerin] (ng/mL), single animal ([2]; mice plasma, 50 mg/kg oral gavage in Labrasol, time 8.0000 hr, 50 mg/kg): 48.21 ng/mL; oral bioavailability ([2]; mice, oral gavage 50 mg/kg in Labrasol): orally bioavailable; absorption ([2]; mice, oral gavage in Labrasol): rapidly absorbed; time for which plasma concentrations are sustained ([2]; mice, oral gavage in Labrasol): greater than 8 h; concentration at 5 min ([2]; mouse, plasma, po, 50 mg/kg, mice plasma, 50 mg/kg oral gavage in Labrasol, time 0.0833 hr, mean of two mice, read-out: [Aza-Englerin] Mean): 10 ng/mL; concentration at 5 min ([2]; mouse, plasma, po, 50 mg/kg, mice plasma, 50 mg/kg oral gavage in Labrasol, time 0.0833 hr, read-out: [Aza-Englerin] (ng/mL), single animal): 6.87 ng/mL; concentration at 0.25 h ([2]; mouse, plasma, po, 50 mg/kg, mice plasma, 50 mg/kg oral gavage in Labrasol, time 0.2500 hr, mean of two mice, read-out: [Aza-Englerin] Mean): 40.7 ng/mL; concentration at 1 h ([2]; mouse, plasma, po, 50 mg/kg, mice plasma, 50 mg/kg oral gavage in Labrasol, time 1.0000 hr, mean of two mice, read-out: [Aza-Englerin] Mean): 73.2 ng/mL; concentration at 1 h ([2]; mouse, plasma, po, 50 mg/kg, mice plasma, 50 mg/kg oral gavage in Labrasol, time 1.0000 hr, read-out: [Aza-Englerin] (ng/mL), single animal): 87.2 ng/mL; concentration at 4 h ([2]; mouse, plasma, po, 50 mg/kg, mice plasma, 50 mg/kg oral gavage in Labrasol, time 4.0000 hr, mean of two mice, read-out: [Aza-Englerin] Mean): 59 ng/mL; concentration at 8 h ([2]; mouse, plasma, po, 50 mg/kg, mice plasma, 50 mg/kg oral gavage in Labrasol, time 8.0000 hr, mean of two mice, read-out: [Aza-Englerin] Mean): 67.8 ng/mL; concentration at 8 h ([2]; mouse, plasma, po, 50 mg/kg, mice plasma, 50 mg/kg oral gavage in Labrasol, time 8.0000 hr, read-out: [Aza-Englerin] (ng/mL), single animal): 87.3 ng/mL; AUC(0-t) ([2]; mouse, mice plasma, 50 mg/kg oral gavage in Labrasol, SE=97.3 hr*ng/mL): 524 ng·h/mL
4 | CC1CCC2C1C(OC(=O)/C=C/c1ccccc1)C1(C(C)C)CC(NC(=O)CF)C2(C)O1 (centres unmarked) [Compound 31] |  | 92.63 |  | 83.31 |  | 104.52 | 85.46 | 116.95 | 104.8 | 94.34 | 109.79 | 110.24 | 102.48 | 88.63 | 106.42 | 106.48 | 106.46 | 99.56 | 96.67 | Growth Percent (HL-60(fB)): 104.52%; Growth Percent (MOLT-4): 96.46%
5 | CC(C)[C@@]12C[C@@H](NC(=O)CO)[C@@](C)(O1)[C@@H]1CC[C@@H](C)[C@H]1[C@@H]2OC(=O)c1ccc2ccccc2c1 [Compound 12] | 2200 | −18.26 | 1600 | −15.23 | 5400 | 8.40 |  |  |  |  |  |  |  |  |  |  |  |  |  | 
